Data: the supplement of paper PMC10307832

Assays:
Test in all cases: relative viability (nuclei count vs DMSO), 5 days (fraction); higher = more cells survive
[1] = compound: N#CC1(c2ccc(NC(=O)c3cccnc3NCc3ccncc3)cc2)CCCC1 [Apatinib] + Nc1nc2[nH]cc(CCc3ccc(C(=O)N[C@@H](CCC(=O)O)C(=O)O)cc3)c2c(=O)[nH]1 [Pemetrexed] (partner 0.2 µM)
In short: (§1)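 Relative viability equals treated-well nuclei counts divided by vehicle-well nuclei counts. Counts came from 4× images of lung cancer cell lines grown in 1536-well plates for 5 days after pin-tool dosing on the day after seeding. Dosing used one drug alone or a fixed anchor-drug dose plus five library-drug doses (not always all listed) in √10 steps, and values are medians of duplicate plates.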

[2] = compound: CN(C)C(=N)NC(=N)N [Metformin] + NC(=O)Nc1cc(-c2cccc(F)c2)sc1C(=O)N[C@H]1CCCNC1 [AZD7762] (partner 0.2 µM)
In short: as §1

[3] = compound: CN(C)C(=N)NC(=N)N [Metformin] + O=C(c1cc(Cc2n[nH]c(=O)c3ccccc23)ccc1F)N1CCN(C(=O)C2CC2)CC1 [Olaparib] (partner 8 µM)
In short: as §1

[4] = compound: CN(C)C(=N)NC(=N)N [Metformin] + C[C@]1(O)C[C@@H](c2nc(-c3ccc4ccc(-c5ccccc5)nc4c3)c3c(N)nccn32)C1 [Linsitinib] (partner 1 µM)
In short: as §1

**Q.** What does the source list for NCI-H460?
**A.** relative viability ([1]; first compound 0.08 µM): 0.0617; relative viability ([1]; first compound 0.253 µM): 0.0695; relative viability ([1]; first compound 0.8 µM): 0.0575; relative viability ([1]; first compound 2.53 µM): 0.0757; relative viability ([1]; first compound 8 µM): 0.0845; relative viability ([2]; first compound 31.62 µM): 0.632; relative viability ([2]; first compound 100 µM): 0.676; relative viability ([2]; first compound 316.23 µM): 0.433; relative viability ([2]; first compound 1000 µM): 0.553; relative viability ([3]; first compound 31.62 µM): 0.412; relative viability ([3]; first compound 100 µM): 0.422; relative viability ([3]; first compound 316.23 µM): 0.294; relative viability ([3]; first compound 1000 µM): 0.262; relative viability ([4]; first compound 31.62 µM): 0.772; relative viability ([4]; first compound 100 µM): 0.774; relative viability ([4]; first compound 316.23 µM): 0.662; relative viability ([4]; first compound 1000 µM): 0.843
